Measurements from patent US20230365572A1, “HYDROXYLBENZYL AZABICYCLO[2.2.1]HEPTAN-1-ANE DRIVATIVES AND MEDICAL USES THEREOF” (ATROGI AB, priority 2020, published 2023).
Where a name gives a salt, the structure may show the parent alone. Read-outs that look alike come from different tables or passages of the source.

Key:
Format in all cases: cell-based
L6-myotubes [1] = experiment: Glucose uptake in differentiated L6-myotubes (3H-2-deoxy-glucose); details: read-out: Biological example 1: glucose uptake, activity compared to that of isoproterenol
Description: L6-myoblasts were grown in Dulbecco's Modified Eagle's Medium (DMEM) containing 4.5 g/l glucose supplemented with 10% fetal bovine serum, 2 mM L-Glutamine, 50 U/ml penicillin, 50 1.1g/ml streptomycin and 10 mM HEPES. Cells were plated at 1×10^5 cells per ml in 24-well plates. After reaching 90% confluence the cells were grown in medium containing 2% FBS for 7 days where upon cells differentiated into myotubes. Differentiated L6-myotubes were serum-starved over night in medium containing 0.5% fatty-acid free BSA and stimulated with agonist, final concentration 1×10^−5. After 1 h 40 min cells were washed with warm, glucose free medium or PBS and another portion of agonist was added to glucose free medium. After 20 min the cells were exposed to 50 nM ^3H-2-deoxy-glucose for another 10 min before washed in ice cold glucose free medium or PBS and lysed in 0.2 M NaOH for 1 h in 60° C.

[2] = tested on: Intracellular cAMP levels; experiment: Measurement of intracellular cAMP levels in differentiated L6 cells (alpha screen cAMP kit); details: Rattus norvegicus, L6, 0.25 h, read-out: Biological example 2: intracellular cAMP levels, activity compared to that of isoproterenol
Description: L6-myoblasts were grown in Dulbecco's Modified Eagle's Medium (DMEM) containing 4.5 g/l glucose supplemented with 10% fetal bovine serum, 2 mM L-Glutamine, 50 U/ml penicillin, 50 1.1g/ml streptomycin and 10 mM HEPES. Cells were plated at 1×10^5 cells per ml in 24-well plates. After reaching 90% confluence the cells were grown in medium containing 2% FBS for 7 days where upon cells differentiated into myotubes. Differentiated cells were serum-starved over night and stimulated with agonist, final concentration 1×10^−5 M, for 15 min in stimulation buffer (HBSS supplemented with 1% BSA, 5 mM HEPES and 1 mM IBMX, pH 7,4) The medium was then aspirated and to end the reaction 100 μL of 95% EtOH was added to each well of a 24-well plate and cells were kept in […] over night. The EtOH was let to evaporate and 5001 μof lysis buffer (1% BSA, 5 mM HEPES and 0.3% Tween-20, pH 7,4) was added to each well before put in −80° C. for 30 min and then kept in −20° C. Intracellular cAMP levels were detected using an alpha screen cAMP kit (6760635D from Perkin Elmer). The activity for each compound is compared to that of isoproterenol.

L6-myotubes [3] = experiment: Glucose uptake in L6-myotubes in the presence of the β2-antagonist ICI-118,551; details: differentiated L6-myotubes, ICI-118,551 1×10^−5 M, compound 1×10^−5 M
Description: L6-myoblasts were grown in Dulbecco's Modified Eagle's Medium (DMEM) containing 4.5 g/l glucose supplemented with 10% fetal bovine serum, 2 mM L-Glutamine, 50 U/ml penicillin, 50 1.1g/ml streptomycin and 10 mM HEPES. Cells were plated at 1×10^5 cells per ml in 24-well plates. After reaching 90% confluence the cells were grown in medium containing 2% FBS for 7 days where upon cells differentiated into myotubes. Differentiated L6-myotubes were serum-starved overnight in medium containing 0.5% fatty-acid free BSA and were incubated with the β2-adrenergic receptor antagonist ICI-118,551 at a final concentration of 1×10^−5 M for 30 min. The cells were stimulated with a compound of the invention, at a final concentration of 1×10^−5 M. After 1 h 40 min the cells were washed twice with warm, glucose free medium or PBS and additional portions of the compound of the invention and the antagonist were added. After 20 min the cells were exposed to 50 nM ^3H-2-deoxyglucose for 10 min before washed with ice cold glucose free medium or PBS three times and lysed with 0.2 M NaOH, 400 μL/well, for 1 h at 60° C. The cell lysate was mixed with 4 mL scintillation buffer (Emulsifier Safe, Perkin Elmer) and the radioactivity was detected in a β-counter (Tri-Carb 4810TR, Perkin Elmer). The activity for each compound is compared to that of isoproterenol.

[4] = differentiated L6-myotubes, agonist final concentration 1×10^−5, 3H-2-deoxy-glucose uptake
[5] = differentiated cells, agonist final concentration 1×10^−5 M, 15 min

Row | Compound | Emax at 10 µM (L6-myotubes [1]; [4]) [%] | Emax at 10 µM [2, 5] [%] | Biological example 3: glucose uptake in the presence of the β2-antagonist ICI-118,551, activity compared to that of isoproterenol (L6-myotubes [3]) | Emax at 10 µM (L6-myotubes [1]) [%] | Emax at 10 µM [2] [%]
1 | CC12CCC([C@@H](O)c3ccccc3Cl)(CC1)N2 [Example 8, (5)-(2-Chlorophenyl)(4-methyl-7-azabicyclo[2.2.1]heptan-1-yl)methanol hydrochloride] | 25 to 50 | < 25 | – | – | –
2 | CC12CCC([C@H](O)c3cccc(Cl)c3)(CC1)N2 [Example 5, (R)-(3-Chlorophenyl)(4-methyl-7-azabicyclo[2.2.1]heptan-1-yl)methanol hydrochloride] | > 75 | < 25 | – | – | –
3 | CC12CCC([C@H](O)c3cncc(F)c3)(CC1)N2 [Example 9, (R)-(3-fluoropyridin-4-yl)(4-methyl-7-azabicydo[2.2.1]heptan-1-yl)-methanol] | > 75 | < 25 | – | – | –
4 | COCC12CCC([C@H](O)c3cccc(F)c3)(CC1)N2 [Example 16, (R)-(3-Fluorophenyl)(4-(methoxymethyl)-7-azabicyclo[2.2.1]heptan-1-yl)methanol hydrochloride] | – | – | − (if it less than 25% it is denoted with) | > 75 | < 25
5 | COCC12CCC([C@@H](O)c3cccc(F)c3)(CC1)N2 [Example 15, (S)-(3-Fluorophenyl)(4-(methoxymethyl)-7-azabicyclo[2.2.1]heptan-1-yl)methanol hydrochloride] | – | – | – | 50 to 75 | < 25
6 | CCCC12CCC([C@@H](O)c3cccc(F)c3)(CC1)N2 [Example 14, (S)-(3-Fluorophenyl)(4-propyl-7-azabicyclo[2.2.1]heptan-1-yl)methanol hydrochloride] | < 25 | < 25 | – | – | –
7 | CC12CCC([C@@H](O)c3ccncc3F)(CC1)N2 [Example 12, (S)-(3-Fluoropyridin-4-yl)(4-methyl-7-azabicydo[2.2.1]heptan-1-yl)-methanol] | < 25 | < 25 | – | – | –
8 | CC12CCC([C@H](O)c3ccccc3F)(CC1)N2 [Example 3, (R)-(2-Fluorophenyl)(4-methyl-7-azabicyclo[2.2.1]heptan-1-yl)methanol hydrochloride] | 50 to 75 | < 25 | – | – | –
9 | CC12CCC([C@H](O)c3ccncc3F)(CC1)N2 [Example 11, (R)-(3-Fluoropyridin-4-yl)(4-methyl-7-azabicyclo[2.2.1]heptan-1-yl)-methanol] | < 25 | < 25 | – | – | –
10 | CC12CCC([C@@H](O)c3ccccc3F)(CC1)N2 [Example 4, (S)-(2-Fluorophenyl)(4-methyl-7-azabicyclo[2.2.1]heptan-1-yl)methanol hydrochloride] | 25 to 50 | < 25 | – | – | –
11 | CC12CCC([C@@H](O)c3cccc(Cl)c3)(CC1)N2 [Example 6, (S)-(3-Chlorophenyl)(4-methyl-7-azabicyclo[2.2.1]heptan-1-yl)methanol hydrochloride] | 25 to 50 | < 25 | – | – | –
12 | CC12CCC([C@H](O)c3ccccc3Cl)(CC1)N2 [Example 7, (R)-(2-Chlorophenyl)(4-methyl-7-azabicyclo[2.2.1]heptan-1-yl)methanol hydrochloride] | > 75 | < 25 | – | – | –
13 | O[C@@H](c1cccc(F)c1)C12CCC(COc3ccc(Cl)cc3)(CC1)N2 [Example 17, (S)-(4-((4-Chlorophenoxy)methyl)-7-azabicyclo[2.2.1]heptan-1-yl)(3-fluorophenyl)methanol] | 50 to 75 | < 25 | – | – | –
14 | CCCC12CCC([C@H](O)c3cccc(F)c3)(CC1)N2 [Example 13, (R)-(3-Fluorophenyl)(4-propyl-7-azabicyclo[2.2.1]heptan-1-yl)methanol hydrochloride] | 50 to 75 | 25 to 50 | – | – | –
15 | CC12CCC([C@@H](O)c3cncc(F)c3)(CC1)N2 [Example 10, (S)-(3-fluoropyridin-4-yl)(4-methyl-7-azabicydo[2.2.1]heptan-1-yl)-methanol] | 50 to 75 | < 25 | – | – | –
16 | CC12CCC([C@H](O)c3cccc(F)c3)(CC1)N2 [Example 1, (R)-(3-Fluorophenyl)(4-methyl-7-azabicyclo[2.2.1]heptan-1-yl)methanol hydrochloride] | > 75 | < 25 | − (if it less than 25% it is denoted with) | – | –
17 | O[C@H](c1cccc(F)c1)C12CCC(COc3ccc(Cl)cc3)(CC1)N2 [Example 18, (R)-(4-((4-Chlorophenoxy)methyl)-7-azabicyclo[2.2.1]heptan-1-yl) (3-fluorophenyl)methanol] | > 75 | < 25 | – | – | –
18 | CC12CCC([C@@H](O)c3cccc(F)c3)(CC1)N2 [Example 2, (S)-(3-Fluorophenyl)(4-methyl-7-azabicyclo[2.2.1]heptan-1-yl)methanol hydrochloride] | > 75 | < 25 | − (if it less than 25% it is denoted with) | – | –
